Data: US20230190685A1, “FORMULATION” (UNION Therapeutics A/S, priority 2020, published 2023)
“And” between values parts separate entries of the source, which are not always exact repeats. Identical values can stand only once.

Tests used:
SARS-CoV-2 = conditions: Vero E6 cells; Wang et al. 2020; read-out: EC50 against SARS-CoV-2; cited from earlier work
[1] = test system: ATCC 29213 (A), MRSA 434844 (B) and S. aureus Newman (C); assay: Spot test on LB agar, all three strains; type: cell-based; conditions: for effect on bacterial load, API in DMSO: repeat spot test, only highest concentration (niclosamide 100 µg/mL, oxyclozanide 40 µg/mL)
Method: Following incubation, the formed colonies were counted. […] Duplicates were performed.
As both positive controls were negative further the experiment was repeated using different concentrations in a spot test using the same methodology described above.
In this experiment the negative control was the bacterial suspension only.

[2] = in vivo
SARS-CoV = conditions: cited from earlier work
[3] = cited from earlier work
asthmatic mice = conditions: dissolved in corn oil, I.P. injection; cited from earlier work
TMEM16A = target: T1, TMEM16A (Homo sapiens, UniProt Q5XXA6); conditions: Cabrita et al. 2019; cited from earlier work
T1 sequence (Q5XXA6 1-986): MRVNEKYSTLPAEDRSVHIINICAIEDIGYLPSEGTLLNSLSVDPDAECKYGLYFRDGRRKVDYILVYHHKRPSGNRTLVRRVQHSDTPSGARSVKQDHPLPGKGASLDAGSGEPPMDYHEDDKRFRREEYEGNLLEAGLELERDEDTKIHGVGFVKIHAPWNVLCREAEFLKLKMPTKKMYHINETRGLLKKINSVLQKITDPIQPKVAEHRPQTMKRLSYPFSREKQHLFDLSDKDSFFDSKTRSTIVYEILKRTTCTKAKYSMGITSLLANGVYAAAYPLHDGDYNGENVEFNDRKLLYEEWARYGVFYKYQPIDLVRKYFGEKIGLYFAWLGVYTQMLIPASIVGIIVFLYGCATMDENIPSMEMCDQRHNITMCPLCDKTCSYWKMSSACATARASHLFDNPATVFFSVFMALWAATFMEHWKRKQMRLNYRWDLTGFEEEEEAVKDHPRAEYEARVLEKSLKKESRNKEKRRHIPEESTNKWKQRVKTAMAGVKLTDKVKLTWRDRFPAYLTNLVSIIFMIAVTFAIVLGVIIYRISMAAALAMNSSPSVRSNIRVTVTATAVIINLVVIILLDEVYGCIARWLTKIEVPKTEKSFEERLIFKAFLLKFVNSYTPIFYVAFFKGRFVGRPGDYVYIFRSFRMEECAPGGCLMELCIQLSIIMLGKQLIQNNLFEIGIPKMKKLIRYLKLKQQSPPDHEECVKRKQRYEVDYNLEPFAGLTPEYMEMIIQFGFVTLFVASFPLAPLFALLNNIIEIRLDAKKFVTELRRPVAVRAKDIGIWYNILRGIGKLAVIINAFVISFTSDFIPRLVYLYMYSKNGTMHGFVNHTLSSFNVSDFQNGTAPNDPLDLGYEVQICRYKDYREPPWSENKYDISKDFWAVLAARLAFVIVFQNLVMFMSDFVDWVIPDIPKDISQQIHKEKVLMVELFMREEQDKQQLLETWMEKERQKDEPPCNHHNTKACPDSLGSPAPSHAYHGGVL

TMEM16F = target: T2, TMEM16F (Homo sapiens, UniProt Q4KMQ2); conditions: Cabrita et al. 2019; cited from earlier work
T2 sequence (Q4KMQ2 1-910): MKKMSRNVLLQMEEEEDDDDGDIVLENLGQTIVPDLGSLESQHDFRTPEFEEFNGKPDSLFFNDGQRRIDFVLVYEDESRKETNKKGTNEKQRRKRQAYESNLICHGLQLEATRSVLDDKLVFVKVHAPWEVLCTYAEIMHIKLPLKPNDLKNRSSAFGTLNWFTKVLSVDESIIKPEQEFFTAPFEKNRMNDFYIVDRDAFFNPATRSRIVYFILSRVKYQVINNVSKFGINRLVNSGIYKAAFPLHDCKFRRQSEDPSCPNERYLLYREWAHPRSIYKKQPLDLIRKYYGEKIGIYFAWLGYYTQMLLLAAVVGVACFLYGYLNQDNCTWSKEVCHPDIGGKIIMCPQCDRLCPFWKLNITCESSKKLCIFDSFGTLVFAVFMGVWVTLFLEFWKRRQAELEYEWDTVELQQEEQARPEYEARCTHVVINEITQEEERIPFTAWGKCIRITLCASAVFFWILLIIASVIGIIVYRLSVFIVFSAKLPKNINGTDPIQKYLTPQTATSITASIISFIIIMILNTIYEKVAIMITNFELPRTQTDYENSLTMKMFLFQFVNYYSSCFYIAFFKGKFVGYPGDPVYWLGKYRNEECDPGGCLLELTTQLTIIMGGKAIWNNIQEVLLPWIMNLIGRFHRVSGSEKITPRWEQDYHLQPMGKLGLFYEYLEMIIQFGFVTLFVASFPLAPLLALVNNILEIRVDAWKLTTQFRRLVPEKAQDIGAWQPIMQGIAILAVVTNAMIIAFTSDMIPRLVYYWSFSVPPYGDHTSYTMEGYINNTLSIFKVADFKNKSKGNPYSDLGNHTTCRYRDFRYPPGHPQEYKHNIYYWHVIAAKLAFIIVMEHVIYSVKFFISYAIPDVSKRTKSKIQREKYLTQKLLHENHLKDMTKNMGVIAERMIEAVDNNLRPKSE

healthy volunteers [4] = conditions: human, in vivo
[5] = Phase 1 trial of inhaled niclosamide, safety and PK; conditions: human, blood, inhaled, 6 mL of 1% formulation
healthy volunteers [6] = assay: as above; conditions: after repeated inhalation doses; raw data

## CC(=O)Oc1ccccc1C(=O)Nc1ncc([N+](=O)[O-])s1 [nitazoxanide]
SARS-CoV-2
  EC50: 2120 nM

## O=C(Nc1ccc([N+](=O)[O-])cc1Cl)c1cc(Cl)ccc1O [niclosamide]
[1]
  effect on bacterial load, API in DMSO: substantially decreased the bacterial load
[2]
  efficacy margin, mean systemic exposure of human oral dose to IC90 against SARS-CoV-2: 8 fold
SARS-CoV
  concentration suppressing cytopathic effect (CPE) of SARS-CoV (as low as): 1 µm
  concentration that totally abolished viral antigen synthesis: 1.56 µm
SARS-CoV; read-out: EC50 of SARS-CoV replication
  EC50: < 100 nM
[3]; after oral administration
  administered dose detected in the urine (minimum level of absorption): 2-25%
[3]; human volunteers, single oral dose of 2,000 mg
  maximal serum concentration of niclosamide: 0.25-6.0 µg/mL and 0.76 -18.3 µM
[3]; oral
  oral bioavailability (F): 10%
Asthmatic mice
  effect on mucus and bronchoconstriction in asthmatic mice: reduced mucus production and secretion, as well as bronchoconstriction
TMEM16A
  inhibition of Cl- channel TMEM16A: potent inhibitor
TMEM16F
  inhibition of Cl- channel TMEM16F: potent inhibitor

## CCN(CC)CCCC(C)Nc1ccnc2cc(Cl)ccc12 (stereo not shown) [chloroquine]
SARS-CoV-2
  EC50: 1130 nM

## O=C(Nc1cc(Cl)cc(Cl)c1O)c1c(O)c(Cl)cc(Cl)c1Cl [oxyclozanide, Oxyclozanide]
[1]; comparison of tested formulations
  efficiency in reducing bacterial load of S. aureus: highest efficiency
[1]
  effect on bacterial load, API in DMSO: substantially decreased the bacterial load

## O=C(Nc1ccc([N+](=O)[O-])cc1Cl)c1cc(Cl)ccc1O [niclosamide ethanolamine]
Healthy volunteers [4]
  AUC0-8, mean: 509.0 ng·h/mL
  maximum plasma concentration (Cmax), mean: 238.9 ng/mL
VeroE6 cells
  CC50: > 10 µM
Caco-2 cells
  CC50: > 10 µM
[5]; repeated
  half-life: 162 min
[5]; single dose
  half-life: 120 min
Healthy volunteers [6]
  peak concentration in blood (range): 29 to 506 ng/mL
